Reference: US8129366B2, “VLA-4 inhibitory drug” (Daiichi Sankyo Company, Limited, priority 2005, dated 2012)

Target: T1, hα4 and β1 integrins (Homo sapiens, UniProt P05556+P13612)
T1 construct: expressed in transfected cells; host or cells: CHO cells
Test: In vitro inhibition of binding between CHO cells expressing hα4 and β1 integrins and Eu3+-hVCAM-1 D1D7-IgG
Settings: for Ki: CHO cells expressing hα4 and β1 integrins, Eu3+-hVCAM-1 D1D7-IgG ligand, without HSA; for IC50: in the presence of 3% human serum albumin (HSA final concentration 3%)
Description: CHO cells which forcibly expressed hα4 and β1 integrins through transfection thereof, were inoculated into a Costar 3599 plate (3×10^4 cells/100 μl/well), and cultured for two days. The cells in the wells were washed two times with buffer A*, and then Eu^3+-hVCAM-1 D1D7-IgG diluted with assay buffer** to 2 nM was added in an amount of 50 μl/well. The substance under test diluted with 26 DMSO-assay buffer (in the co-presence or absence of 6% human serum albumin) was added in an amount of 50 μl/well (adding separately diluted solution to the wells for performing Scatchard analysis), the contents were stirred for 5 minutes with a plate mixer, and then the plate was left to stand still for one hour at room temperature. The binding inhibitory activity in the presence of human serum albumin (HSA) was examined by diluting the specimen with 26 DMSO-assay buffer containing 6% HSA (SIGMA Corp., c/n A-1653), and adding the resultant (HSA final concentration 3%). After 30 to 60 minutes of the addition of specimen, the plate contents were washed 4 times with buffer A at 4° C., an enhancing reagent (DELFIA SA) was added in an amount of 100 μl/well, and the plate was shaken for 5 minutes using a plate mixer. Subsequently, the fluorescence intensity was measured with a time-resolved fluorometer (DELFIA Wallac). The IC50 of the substance under test (the concentration for 50% inhibition of the binding between CHO cells and Eu^3+-hVCAM-1 D1D7-IgG) was determined from the binding rate obtained from the calculating expression of [(FT−FNS)−(FI−FNS)]/[(FT−FNS)]×100. Here, FT represents the fluorescence intensity of a well not containing the substance under test; FNS represents the fluorescence intensity of a well not containing the substance under test and hVCAM-1 D1D7-IgG; and FI represents the fluorescence intensity of a well containing the substance under test. The Kd value which represents the strength of binding, and Bmax (maximum binding amount) were estimated to be in the range of 0.06 to 20 nM according to the Scatchard analysis method. The evaluation results of the Ki value of the substance under test, and of the IC50 value in the presence of 3% HSA are presented in Tables 2 to 7.
The Ki value was calculated according to the above-described expression. ([L] is the ligand concentration)
[* buffer A: 25 mM HEPES (pH 7.5), 150 mM NaCl, 1 mM Ca^2+, 1 mM Mg^2+, 4 mM Mn2+;
** assay buffer: 25 mM HEPES (pH=7.5), 150 mM NaCl, 1 mM Ca^2+, 1 mM Mg^2+, 4 mM Mn^2+, 0.1% BSA, 20 μM DTPA, with/without 6% ALBUMIN, HUMAN SERUM (C/N A-1653, SIGMA)]

T1 sequence (P13612 34-1032): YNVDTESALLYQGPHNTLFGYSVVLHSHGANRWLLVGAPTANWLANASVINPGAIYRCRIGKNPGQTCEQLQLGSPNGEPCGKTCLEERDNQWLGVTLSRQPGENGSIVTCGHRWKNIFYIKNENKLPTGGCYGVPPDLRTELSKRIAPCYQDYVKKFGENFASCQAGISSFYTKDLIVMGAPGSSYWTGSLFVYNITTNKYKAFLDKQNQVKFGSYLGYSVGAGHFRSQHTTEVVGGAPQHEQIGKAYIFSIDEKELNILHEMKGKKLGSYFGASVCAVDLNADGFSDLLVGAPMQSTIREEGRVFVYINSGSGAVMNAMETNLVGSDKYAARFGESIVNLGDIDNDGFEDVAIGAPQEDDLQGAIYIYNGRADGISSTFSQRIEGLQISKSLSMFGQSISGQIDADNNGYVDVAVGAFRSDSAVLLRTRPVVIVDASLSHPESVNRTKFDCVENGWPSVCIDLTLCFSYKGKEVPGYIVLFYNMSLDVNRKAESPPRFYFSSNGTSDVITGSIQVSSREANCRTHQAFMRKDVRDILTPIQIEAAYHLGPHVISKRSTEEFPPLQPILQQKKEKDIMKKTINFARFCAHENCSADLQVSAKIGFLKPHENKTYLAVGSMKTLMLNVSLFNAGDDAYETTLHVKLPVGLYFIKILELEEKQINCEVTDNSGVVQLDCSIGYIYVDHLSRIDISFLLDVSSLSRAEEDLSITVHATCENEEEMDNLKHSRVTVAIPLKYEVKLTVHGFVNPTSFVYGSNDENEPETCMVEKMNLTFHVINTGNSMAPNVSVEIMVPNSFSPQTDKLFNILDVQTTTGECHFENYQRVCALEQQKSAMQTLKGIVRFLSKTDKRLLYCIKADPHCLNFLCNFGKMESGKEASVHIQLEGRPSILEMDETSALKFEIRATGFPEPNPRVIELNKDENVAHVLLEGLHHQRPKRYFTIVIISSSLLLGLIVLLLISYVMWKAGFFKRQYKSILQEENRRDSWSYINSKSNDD
T1 sequence (P05556 21-798): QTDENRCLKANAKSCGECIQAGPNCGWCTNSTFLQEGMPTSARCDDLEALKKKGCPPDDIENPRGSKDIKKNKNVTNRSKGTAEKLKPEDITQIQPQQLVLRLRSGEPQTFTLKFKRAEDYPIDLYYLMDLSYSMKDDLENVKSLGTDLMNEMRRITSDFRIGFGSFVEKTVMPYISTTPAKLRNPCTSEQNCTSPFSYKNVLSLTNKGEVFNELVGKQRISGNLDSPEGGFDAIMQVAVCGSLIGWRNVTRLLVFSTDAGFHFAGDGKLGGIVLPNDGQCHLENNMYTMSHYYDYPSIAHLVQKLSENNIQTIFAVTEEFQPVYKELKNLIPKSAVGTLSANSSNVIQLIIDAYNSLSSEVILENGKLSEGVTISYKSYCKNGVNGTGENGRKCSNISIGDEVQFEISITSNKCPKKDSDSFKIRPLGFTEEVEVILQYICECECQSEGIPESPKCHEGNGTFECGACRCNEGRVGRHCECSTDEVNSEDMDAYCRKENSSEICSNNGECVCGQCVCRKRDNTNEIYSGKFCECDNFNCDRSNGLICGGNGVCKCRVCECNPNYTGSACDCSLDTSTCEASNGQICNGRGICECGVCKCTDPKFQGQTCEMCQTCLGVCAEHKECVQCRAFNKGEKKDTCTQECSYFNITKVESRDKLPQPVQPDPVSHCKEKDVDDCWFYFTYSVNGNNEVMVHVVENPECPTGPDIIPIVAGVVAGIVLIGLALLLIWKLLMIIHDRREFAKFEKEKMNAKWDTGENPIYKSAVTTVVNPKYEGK

Row | Structure (SMILES) | Ki [nM] | IC50 [nM]
1 | Cn1cc(C(=O)Nc2cc(F)c(CC(=O)N3C[C@@H](N4CCN(C5(C)CC5)CC4)C[C@H]3CO[C@H]3CC[C@H](C(=O)O)CC3)cc2Cl)c2ccccc21 [Example 141, Trans-4-[1-[[5-chloro-2-fluoro-4-[(1-methyl-1H-indol-3-ylcarbonyl)amino]phenyl]acetyl]-(4S)-[4-(1-methylcyclopropan-1-yl)piperazin-1-yl]-(2S)-pyrrolidinylmethoxy]cyclohexa necarboxylic acid] | 6.3 | 23
2 | O=C(Nc1cc(Cl)c(CC(=O)N2C[C@@H](N3CCCN(C4CC4)CC3)C[C@H]2CO[C@H]2CC[C@H](C(=O)O)CC2)cc1Cl)c1csc2ccccc12 [Example 169, Trans-4-[1-[[4-[(benzo[b]thiophen-3-ylcarbonyl)amino]2,5-dichlorophenyl]acetyl]-(4S)-(4-cyclopropyl-[1,4]-diazepan-1-yl)-(2S)-pyrrolidinylmethoxy]cyclohexanecarboxylic acid] | 1.1 | 5.9
3 | Cn1cc(C(=O)Nc2cc(F)c(CC(=O)N3C[C@@H](N4CCN(C5CCCC5)CC4)C[C@H]3CO[C@H]3CC[C@H](C(=O)O)CC3)cc2Cl)c2ccccc21 [Example 142, Trans-4-[1-[[5-chloro-2-fluoro-4-[(1-methyl-1H-indol-3-ylcarbonyl)amino]phenyl]acetyl]-(4S)-[4-cyclopentylpiperazin-1-yl]-(2S)-pyrrolidinylmethoxy]cyclohexanecarboxylic acid] | 4.7 | 11
4 | COC[C@H]1CC[C@H](COC)N1[C@H]1C[C@@H](CO[C@H]2CC[C@H](C(=O)O)CC2)N(C(=O)Cc2cc(Cl)c(NC(=O)c3csc4ccccc34)cc2F)C1 [Example 49] | 4 | 62
5 | Cn1cc(C(=O)Nc2cc(Cl)c(CC(=O)N3C[C@@H](N4CCC(S(C)(=O)=O)CC4)C[C@H]3CO[C@H]3CC[C@H](C(=O)O)CC3)cc2Cl)c2ccccc21 [Example 108, Trans-4-[1-[[2,5-dichloro-4-[(1-methyl-1H-indol-3-ylcarbonyl)amino]phenyl]acetyl]-(4S)-(4-methanesulfonylpiperidin-1-yl)-(2S)-pyrrolidinylmethoxy]cyclohexanecarboxylic acid] | 3.1 | 8.2
6 | O=C(Nc1cc(F)c(CC(=O)N2C[C@@H](N3CCN(CC(F)(F)F)CC3)C[C@H]2CO[C@H]2CC[C@H](C(=O)O)CC2)cc1Cl)c1coc2ccccc12 [Example 126, Trans-4-[1-[[4-[(benzo[b]furan-3-ylcarbonyl)amino]-5-chloro-2-fluorophenyl]acetyl]-(4S)-[4-(2,2,2-trifluoroethyl)piperazin-1-yl]-(2S)-pyrrolidinylmethoxy]cyclohexanecarboxylic acid] | 2.4 | 13
7 | Cn1cc(C(=O)Nc2cc(F)c(CC(=O)N3C[C@@H](N4CCSCC4)C[C@H]3CO[C@H]3CC[C@H](C(=O)O)CC3)cc2Cl)c2ccccc21 [Example 158, Trans-4-[1-[[5-chloro-2-fluoro-4-[(1-methyl-1H-indol-3-ylcarbonyl)amino]phenyl]acetyl]-(4S)-(thiomorpholin-4-yl)-(2S)-pyrrolidinylmethoxy]cyclohexanecarboxylic acid] | 4 | 16
8 | COc1cc(CC(=O)N2C[C@@H](N3CCN(CC(F)(F)F)CC3)C[C@H]2CO[C@H]2CC[C@H](C(=O)O)CC2)ccc1NC(=O)c1csc2ccccc12 [Example 133, Trans-4-[1-[[4-[(benzo[b]thiophen-3-ylcarbonyl)amino]-3-methoxyphenyl]acetyl]-(4S)-[4-(2,2,2-trifluoroethyl)piperazin-1-yl]-(2S)-pyrrolidinylmethoxy]cyclohexanecarboxylic acid] | 1.3 | 3.3
9 | C[C@@H]1CN([C@H]2C[C@@H](CO[C@H]3CC[C@H](C(=O)O)CC3)N(C(=O)Cc3cc(Cl)c(NC(=O)c4c[nH]c5ccccc45)cc3Cl)C2)C[C@H](C)O1 [Example 89, Trans-4-[1-[[2,5-dichloro-4-[(1H-indol-3-ylcarbonyl)amino]phenyl]acetyl]-(4S)-(cis-2,6-dimethylmorpholin-4-yl)-(2S)-pyrrolidinylmethoxy]cyclohexanecarboxylic acid] | 0.96 | 2.3
10 | CC1CN([C@H]2C[C@@H](CO[C@H]3CC[C@H](C(=O)O)CC3)N(C(=O)Cc3cc(Cl)c(NC(=O)c4coc5ccccc45)cc3F)C2)C1 [Example 11, Trans-4-[1-[[4-[(benzo[b]furan-3-ylcarbonyl)amino]-5-chloro-2-fluorophenyl]acetyl]-(4S)-(3-methylazetidin-1-yl)-(2S)-pyrrolidinylmethoxy]cyclohexanecarboxylic acid] | 3.5 | 21
11 | Cn1cc(C(=O)Nc2cc(Cl)c(CC(=O)N3C[C@@H](N4CCN(C(=O)C(C)(C)C)CC4)C[C@H]3CO[C@H]3CC[C@H](C(=O)O)CC3)cc2Cl)c2ccccc21 [Example 149, Trans-4-[1-[[2,5-dichloro-4-[(1-methyl-1H-indol-3-ylcarbonyl)amino]phenyl]acetyl]-(4S)-(4-pivaloylpiperazin-1-yl)-(2S)-pyrrolidinylmethoxy]cyclohexanecarboxylic acid] | 1.7 | 24
12 | Cn1cc(C(=O)Nc2cc(Cl)c(CC(=O)N3C[C@@H](N4CCN(CC(F)F)CC4)C[C@H]3CO[C@H]3CC[C@H](C(=O)O)CC3)cc2Cl)c2ccccc21 [Example 120, Trans-4-[1-[[2,5-dichloro-4-[(1-methyl-1H-indol-3-ylcarbonyl)amino]phenyl]acetyl]-(4S)-[4-(2,2-difluoroethyl)piperazin-1-yl]-(2S)-pyrrolidinylmethoxy]cyclohexanecarboxylic acid] | 3.8 | 16
13 | COC1CN([C@H]2C[C@@H](CO[C@H]3CC[C@H](C(=O)O)CC3)N(C(=O)Cc3cc(Cl)c(NC(=O)c4coc5ccccc45)cc3Cl)C2)C1 [Example 6, Trans-4-[1-[[4-[(benzo[b]furan-3-ylcarbonyl)amino]-2,5-dichlorophenyl]acetyl]-(4S)-(3-methoxyazetidin-1-yl)-(2S)-pyrrolidinylmethoxy]cyclohexanecarboxylic acid] | 5.9 | 76
14 | O=C(Nc1cc(F)c(CC(=O)N2C[C@@H](N3C[C@@H]4CS(=O)(=O)C[C@@H]4C3)C[C@H]2CO[C@H]2CC[C@H](C(=O)O)CC2)cc1Cl)c1coc2ccccc12 [Example 77, Trans-4-[1-[[4-[(benzo[b]furan-3-ylcarbonyl)amino]-5-chloro-2-fluorophenyl]acetyl]-(4S)-[(3a,6a-cis)-hexahydro-2,2-dioxo-2λ^6-thieno[3,4-c]pyrrol-5-yl]-(2S)-pyrrolidinylmethoxy]cyclohexanecarboxylic acid] | 2 | 4.1
15 | CO[C@H]1CN([C@H]2C[C@@H](CO[C@H]3CC[C@H](C(=O)O)CC3)N(C(=O)Cc3cc(Cl)c(NC(=O)c4coc5ccccc45)cc3F)C2)C[C@H]1OC [Example 59, Trans-4-[1-[[4-[(benzo[b]furan-3-ylcarbonyl)amino]-5-chloro-2-fluorophenyl]acetyl]-(4S)-(cis-3,4-dimethoxypyrrolidin-1-yl)-(2S)-pyrrolidinylmethoxy]cyclohexanecarboxylic acid] | 3 | 8.1
16 | O=C(Nc1cc(F)c(CC(=O)N2C[C@@H](N3C[C@H]4C[C@H]4C3)C[C@H]2CO[C@H]2CC[C@H](C(=O)O)CC2)cc1Cl)c1csc2ccccc12 [Example 71, Trans-4-[1-[[4-[(benzo[b]thiophen-3-ylcarbonyl)amino]-5-chloro-2-fluorophenyl]acetyl]-(4S)-[3-azabicyclo[3.1.0]hexan-3-yl]-(2S)-pyrrolidinylmethoxy]cyclohexanecarboxylic acid] | 7.5 | 28
17 | O=C(Nc1cc(Cl)c(CC(=O)N2C[C@@H](N3CCN(CC(F)(F)F)CC3)C[C@H]2CO[C@H]2CC[C@H](C(=O)O)CC2)cc1Cl)c1c[nH]c2ccccc12 [Example 129, Trans-4-[1-[[2,5-dichloro-4-[(1H-indol-3-ylcarbonyl)amino]phenyl]acetyl]-(4S)-[4-(2,2,2-trifluoroethyl)piperazin-1-yl]-(2S)-pyrrolidinylmethoxy]cyclohexanecarboxylic acid] | 0.93 | 1.9
